Test results from PubChem BioAssay AID2060614 (Molecular Pharmacology Branch, DTP, NCI, 2025).

System: 598228-144-R-J1-PDC complex spheroids, viability
Experiment: Anticancer human tumor 598228-144-R-J1-PDC patient-derived serous endometrial adenocarcinoma cell line growth inhibition [CLK]
Details: for IC50: curve of first compound; for viability, T/C: stronger effect = lower value; active means viability on the fitted dose curve at most 10% of control; inactive means the rest
Excerpt: A high-throughput screen of multi-cell type tumor spheroids was designed to identify active combinations of […] and targeted small molecules. Complex spheroids include a stromal component modeled by human endothelial cells (HUVEC) and fibroblasts modeled by human mesenchymal stem cells (MSCs). The concentration ranges selected for each drug and investigational agent were based upon clinically achievable concentrations if the clinical Cmax of the agent was known.
Compounds. The drugs and investigational agents: cirtuvivint (SM08502; NSC835563), CC-671 (NSC850746), vemurafenib (NSC761431), tapotoclax (NSC804041), sotorasib (NSC818433), adagrasib (NSC831453), MRTX-1133 (NSC836407), BAY2416964 (NSC825713), copanlisib (NSC816437), inavolisib (NSC800729), abemaciclib (NSC768073), osimertinib (NSC779217), entinostat (NSC756642), eltanexor (KPT-8602, NSC794443), venetoclax (NSC766270), ceralasertib (NSC777638), bortezomib (NSC756655), olaparib (NSC753686), talazoparib (NSC767125), alisertib (NSC759677), peposertib (NSC802822), gemcitabine (NSC613327), 5-fluorouracil (NSC19893), SN-38 (NSC673596), oxaliplatin (NSC266046), paclitaxel (NSC125973), and doxorubicin (NSC123127), were obtained from the National Cancer Institute (NCI) Developmental Therapeutics Program Chemical Repository. The FDA-approved anticancer drug set is available from the Developmental Therapeutics Program at https://dtp.cancer.gov/organization/dscb/obtaining/available plates.htm. […] The stock solutions were prepared in dimethyl sulfoxide (DMSO, Sigma-Aldrich, St. Louis, MO, cat. D2650), except for the platinum complexes which were prepared in saline (Quality Biological, Gaithersburg, MD, cat. 114-055-101), at 800-fold the tested concentration and stored at -70 degrees C prior to their use. All drugs and investigational agents were tested over a range starting from a high concentration at or near the clinical Cmax and decreasing in half-log increments. If the clinical Cmax for an agent had not been determined, the highest concentration tested was 10 microM.
Cell Culture. All cells were maintained in an incubator at 37 degrees C and 5% CO2 with 95% humidity. The PDC lines were cultured according to standard operating procedures established by the NCI PDMR. Briefly, all PDCs were thawed and cultured in Matrigel-coated flasks prepared with a working solution of 1X Ham's F-12 nutrient mix, without supplementation (Invitrogen, Waltham, MA, cat. 11765054), 100 U/mL penicillin-streptomycin (Invitrogen, cat. 15140122), and 2.5% Matrigel (Corning Inc., Corning, NY, cat. 354248) for the first three passages. The 947758-054-R-J2-PDC line was cultured in 6B/Colon 1A media, which includes advanced DMEM/F-12 (Thermo Fisher Scientific, cat. 12634028), 10 mM HEPES (Thermo Fisher Scientific, cat. 15630080), 1X GlutaMAX supplement (Thermo Fisher Scientific, cat. 35050061), 0.1 mg/mL primocin (InvivoGen, cat. ant-pm-2), 10% defined fetal bovine serum, heat inactivated (HyClone Laboratories Inc., cat. SH30070.03HI), 1.25 mM N-Acetyl-L-cysteine (Sigma-Aldrich, cat. A9165), 10 mM nicotinamide (Sigma-Aldrich, cat. N0636), 1X B-27 supplement (Thermo Fisher Scientific, cat. 17504044), 1X N-2 supplement (Thermo Fisher Scientific, cat. 17502048), and 10 microM Y-27632 dihydrochloride (Tocris Bioscience, cat. 1254). The 876862-298-R-J1-PDC was cultured in 6E media, which includes all 6B/Colon 1A media components plus 50% L-WRN conditioned media (ATCC, cat. CRL-3276), 50 ng/mL recombinant human EGF recombinant protein (hEGF; Thermo Fisher Scientific, cat. PHG0311), 10 ng/mL recombinant human fibroblast growth factor 10 (hGFG-10; PeproTech, cat. 100-26), 1 ng/mL recombinant human fibroblast growth factor 2 (hFGF-2; PeproTech, cat. 100-18B), and 1 µM prostaglandin E2 (PGE2; Tocris, cat. 2296). The 227483-062-R1-J1-PDC line was cultured in Panc media, containing all 6E components except hFGF-2, with the addition of 500 nM SB-431542 (Selleckchem, cat. S1067) and 10 nM gastrin (Tocris, cat. 3006). […]
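Further: spheroids exposed to compounds for seven days before readout.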
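Wherever viability, T/C is given: 100% = DMSO vehicle control wells.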

C=C(F)C(=O)N1CCN(c2nc(OCC3CCCN3C)nc3c2CCN(c2cccc4cccc(Cl)c24)C3)CC1CC#N (configuration not stated) + CN1CCN(c2cc(C(=O)Nc3cc4cc(-c5cnn(C)c5)ccc4cn3)ccn2)CC1
5.38 µM: IC50 (second compound 0.0316 µM)
< 0.0316 µM: IC50 (second compound 0.316 µM) | IC50 (second compound 1 µM) | IC50 (second compound 3.16 µM) | IC50 (second compound 10 µM)
inactive: viability, T/C (second compound 0.0316 µM, first compound 0.0316 µM) 120% | viability, T/C (second compound 0.0316 µM, first compound 0.1 µM) 116% | viability, T/C (second compound 0.0316 µM, first compound 0.316 µM) 123% | viability, T/C (second compound 0.0316 µM, first compound 1 µM) 122% | viability, T/C (second compound 0.0316 µM, first compound 3.16 µM) 91.6% | viability, T/C (second compound 0.1 µM, first compound 0.0316 µM) 131% | viability, T/C (second compound 0.1 µM, first compound 0.1 µM) 123% | viability, T/C (second compound 0.1 µM, first compound 0.316 µM) 116% | viability, T/C (second compound 0.1 µM, first compound 1 µM) 135% | viability, T/C (second compound 0.1 µM, first compound 3.16 µM) 95.7% | viability, T/C (second compound 0.316 µM, first compound 0.0316 µM) 17.1% | viability, T/C (second compound 0.316 µM, first compound 0.1 µM) 20% | viability, T/C (second compound 0.316 µM, first compound 0.316 µM) 17.4% | viability, T/C (second compound 0.316 µM, first compound 1 µM) 18.9%
active: viability, T/C (second compound 0.0316 µM, first compound 10 µM) 1.53% | viability, T/C (second compound 0.1 µM, first compound 10 µM) 1.5% | viability, T/C (second compound 0.316 µM, first compound 3.16 µM) 11.9% | viability, T/C (second compound 0.316 µM, first compound 10 µM) 0.14% | viability, T/C (second compound 1 µM, first compound 0.0316 µM) 2.31% | viability, T/C (second compound 1 µM, first compound 0.1 µM) 2.11% | viability, T/C (second compound 1 µM, first compound 0.316 µM) 1.77% | viability, T/C (second compound 1 µM, first compound 1 µM) 1.1% | viability, T/C (second compound 1 µM, first compound 3.16 µM) 1.88% | viability, T/C (second compound 1 µM, first compound 10 µM) 0.11% | viability, T/C (second compound 3.16 µM, first compound 0.0316 µM) 1.76% | viability, T/C (second compound 3.16 µM, first compound 0.1 µM) 3.04% | viability, T/C (second compound 3.16 µM, first compound 0.316 µM) 1.61% | viability, T/C (second compound 3.16 µM, first compound 1 µM) 2.21% | viability, T/C (second compound 3.16 µM, first compound 3.16 µM) 2.11% | viability, T/C (second compound 3.16 µM, first compound 10 µM) 0.17% | viability, T/C (second compound 10 µM, first compound 0.0316 µM) 1.18% | viability, T/C (second compound 10 µM, first compound 0.1 µM) 1.1% | viability, T/C (second compound 10 µM, first compound 0.316 µM) 3.38% | viability, T/C (second compound 10 µM, first compound 1 µM) 0.85% | viability, T/C (second compound 10 µM, first compound 3.16 µM) 1.73% | viability, T/C (second compound 10 µM, first compound 10 µM) 3.8%
5.53 µM: IC50 (second compound 0.1 µM)
